Test results reported in US20050165064A1, “Novel thiol derivative, process for producing the same and use thereof” (priority 2003, published 2005).
Counter-ions that a name gives are not always drawn.

Biological target: Recombinant Human MMP-13 (Homo sapiens, UniProt P45452)
Test: MMP-13 inhibitory activity, fluorescent synthetic substrate method
Type: biochemical
Conditions: 8 nM APMA-activated enzyme, 10 μM substrate, 37° C., 1 hour
Protocol: The MMP-13 inhibitory activity was measured by a method using a fluorescent synthetic substrate. To a buffer solution for measurement (100 mM Tris-HCl, pH 7.4, 100 mM NaCl, 10 mM CaCl2) containing Recombinant Human MMP-13 (manufactured by Takeda Pharmaceuticals, Inc.) activated by APMA (1 mM) in a concentration of 8 nM, the compound dissolved in DMSO was added in a predetermined concentration. Subsequently, a fluorescent synthetic substrate (7-methoxycoumarin-4-yl)acetyl-Pro-Leu-Gly-Leu-(3-[2,4-dinitrophenyl]-L-2,3-diaminopropionyl)-Ala-Arg-NH2 was added thereto in a concentration of 10 μM to initiate the reaction. After incubation at 37° C. for 1 hour, a 500 mM acetate buffer (pH 3.0) was added to stop the reaction. The increase in the fluorescence intensity due to substrate decomposition was measured employing a CORONA MTP-32 plate reader under the condition of Ex/Em=340/400. The rate of inhibition of the enzymatic inhibitory activity was determined from the following equation: Rate of Inhibition (%)=100−(X−C)/(T−C)×100
T: Fluorescence intensity of the control with addition of enzyme and without addition of the compound
C: Fluorescence intensity of the control without addition of enzyme and without addition of the compound
X: Fluorescence intensity with addition of enzyme and with addition of the compound

For O=C1C[C@@H](S)CN1Cc1ccc(Oc2ccc(F)cc2)nc1 [Example 2, (4R)-1-{[6-(4-fluorophenoxy)pyridin-3-yl]methyl}-4-mercaptopyrrolidin-2-one hydrochloride], the inhibition at 0.003 µM (compound 3 nM, read-out: rate of inhibition for MMP-13 activity) was 63%.

CS(=O)(=O)Nc1ccc(Oc2ccc(CN3C[C@H](S)CC3=O)cn2)cc1 [Example 15] was tested, and the “rate of inhibition for MMP-13 activity” value (compound 1.5 nM) was 67%.

CCc1ccc(Oc2ccc(CN3C[C@H](S)CC3=O)cn2)cc1 [Example 12, (4R)-1-{[6-(4-ethylphenoxy)pyridin-3-yl]methyl}-4-mercaptopyrrolidin-2-one] showed an inhibition at 0.0015 µM (compound 1.5 nM, read-out: rate of inhibition for MMP-13 activity) of 50%.
